According to ChEMBL document CHEMBL4765443, “Covalent and noncovalent constraints yield a figure eight-like conformation of a peptide inhibiting the menin-MLL interaction” (Eur J Med Chem, 2020):
Starred links: 1 amine or outer side, 2 acyl side, 3 side chain; linkers in the order of their positions; H or OH if unused. Positions of bridges follow the written chain, without caps; N, C: chain ends. Non-standard residues stand in square brackets, D forms with d. Residues, ends and D or L forms follow the SMILES beside them. Hag = O=C([C@H](CCC=[*:3])N[*:1])[*:2]; Phe(3-F) = N[C@@H](Cc1cccc(F)c1)C(=O)O; AllylGly = C=CC[C@H](N)C(=O)O; Orn = NCCC[C@H](N)C(=O)O; Ac4c = NC1(C(=O)O)CCC1

Assays:
[1] = molecular target: T1, Menin/Histone-lysine N-methyltransferase MLL (Homo sapiens, UniProt O00255); test: Inhibition of Menin-MLL protein-protein interaction (unknown origin) preincubated for 1 hr in presence of FLSN-MLL4-43 peptide followed by compound addition and measured after 1 hr by fluorescence polarization assay
[2] = molecular target: T1, Menin/Histone-lysine N-methyltransferase MLL; test: Inhibition of Menin-MLL protein-protein interaction (unknown origin) preincubated for 1 hr in presence of FLSN-MBM1 peptide followed by compound addition and measured after 1 hr by fluorescence polarization assay

T1 sequence (O00255 whole entry): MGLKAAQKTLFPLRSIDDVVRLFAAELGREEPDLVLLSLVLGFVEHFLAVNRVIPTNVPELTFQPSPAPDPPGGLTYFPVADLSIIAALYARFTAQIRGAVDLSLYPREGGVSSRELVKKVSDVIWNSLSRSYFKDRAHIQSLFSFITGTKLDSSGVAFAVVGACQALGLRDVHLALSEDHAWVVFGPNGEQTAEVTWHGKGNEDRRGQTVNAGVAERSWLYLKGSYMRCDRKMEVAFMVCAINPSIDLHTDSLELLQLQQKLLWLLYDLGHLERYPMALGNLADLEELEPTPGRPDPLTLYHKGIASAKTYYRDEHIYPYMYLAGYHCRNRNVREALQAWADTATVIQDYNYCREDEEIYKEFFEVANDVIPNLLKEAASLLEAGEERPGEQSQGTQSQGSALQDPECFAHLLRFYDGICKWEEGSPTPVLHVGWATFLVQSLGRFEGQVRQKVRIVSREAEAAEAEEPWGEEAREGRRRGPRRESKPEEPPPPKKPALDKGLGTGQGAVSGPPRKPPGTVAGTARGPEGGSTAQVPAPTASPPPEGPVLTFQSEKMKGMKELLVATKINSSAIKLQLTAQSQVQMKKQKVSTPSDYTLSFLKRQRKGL
T1 sequence (Q03164 1-2718 partner limits assumed): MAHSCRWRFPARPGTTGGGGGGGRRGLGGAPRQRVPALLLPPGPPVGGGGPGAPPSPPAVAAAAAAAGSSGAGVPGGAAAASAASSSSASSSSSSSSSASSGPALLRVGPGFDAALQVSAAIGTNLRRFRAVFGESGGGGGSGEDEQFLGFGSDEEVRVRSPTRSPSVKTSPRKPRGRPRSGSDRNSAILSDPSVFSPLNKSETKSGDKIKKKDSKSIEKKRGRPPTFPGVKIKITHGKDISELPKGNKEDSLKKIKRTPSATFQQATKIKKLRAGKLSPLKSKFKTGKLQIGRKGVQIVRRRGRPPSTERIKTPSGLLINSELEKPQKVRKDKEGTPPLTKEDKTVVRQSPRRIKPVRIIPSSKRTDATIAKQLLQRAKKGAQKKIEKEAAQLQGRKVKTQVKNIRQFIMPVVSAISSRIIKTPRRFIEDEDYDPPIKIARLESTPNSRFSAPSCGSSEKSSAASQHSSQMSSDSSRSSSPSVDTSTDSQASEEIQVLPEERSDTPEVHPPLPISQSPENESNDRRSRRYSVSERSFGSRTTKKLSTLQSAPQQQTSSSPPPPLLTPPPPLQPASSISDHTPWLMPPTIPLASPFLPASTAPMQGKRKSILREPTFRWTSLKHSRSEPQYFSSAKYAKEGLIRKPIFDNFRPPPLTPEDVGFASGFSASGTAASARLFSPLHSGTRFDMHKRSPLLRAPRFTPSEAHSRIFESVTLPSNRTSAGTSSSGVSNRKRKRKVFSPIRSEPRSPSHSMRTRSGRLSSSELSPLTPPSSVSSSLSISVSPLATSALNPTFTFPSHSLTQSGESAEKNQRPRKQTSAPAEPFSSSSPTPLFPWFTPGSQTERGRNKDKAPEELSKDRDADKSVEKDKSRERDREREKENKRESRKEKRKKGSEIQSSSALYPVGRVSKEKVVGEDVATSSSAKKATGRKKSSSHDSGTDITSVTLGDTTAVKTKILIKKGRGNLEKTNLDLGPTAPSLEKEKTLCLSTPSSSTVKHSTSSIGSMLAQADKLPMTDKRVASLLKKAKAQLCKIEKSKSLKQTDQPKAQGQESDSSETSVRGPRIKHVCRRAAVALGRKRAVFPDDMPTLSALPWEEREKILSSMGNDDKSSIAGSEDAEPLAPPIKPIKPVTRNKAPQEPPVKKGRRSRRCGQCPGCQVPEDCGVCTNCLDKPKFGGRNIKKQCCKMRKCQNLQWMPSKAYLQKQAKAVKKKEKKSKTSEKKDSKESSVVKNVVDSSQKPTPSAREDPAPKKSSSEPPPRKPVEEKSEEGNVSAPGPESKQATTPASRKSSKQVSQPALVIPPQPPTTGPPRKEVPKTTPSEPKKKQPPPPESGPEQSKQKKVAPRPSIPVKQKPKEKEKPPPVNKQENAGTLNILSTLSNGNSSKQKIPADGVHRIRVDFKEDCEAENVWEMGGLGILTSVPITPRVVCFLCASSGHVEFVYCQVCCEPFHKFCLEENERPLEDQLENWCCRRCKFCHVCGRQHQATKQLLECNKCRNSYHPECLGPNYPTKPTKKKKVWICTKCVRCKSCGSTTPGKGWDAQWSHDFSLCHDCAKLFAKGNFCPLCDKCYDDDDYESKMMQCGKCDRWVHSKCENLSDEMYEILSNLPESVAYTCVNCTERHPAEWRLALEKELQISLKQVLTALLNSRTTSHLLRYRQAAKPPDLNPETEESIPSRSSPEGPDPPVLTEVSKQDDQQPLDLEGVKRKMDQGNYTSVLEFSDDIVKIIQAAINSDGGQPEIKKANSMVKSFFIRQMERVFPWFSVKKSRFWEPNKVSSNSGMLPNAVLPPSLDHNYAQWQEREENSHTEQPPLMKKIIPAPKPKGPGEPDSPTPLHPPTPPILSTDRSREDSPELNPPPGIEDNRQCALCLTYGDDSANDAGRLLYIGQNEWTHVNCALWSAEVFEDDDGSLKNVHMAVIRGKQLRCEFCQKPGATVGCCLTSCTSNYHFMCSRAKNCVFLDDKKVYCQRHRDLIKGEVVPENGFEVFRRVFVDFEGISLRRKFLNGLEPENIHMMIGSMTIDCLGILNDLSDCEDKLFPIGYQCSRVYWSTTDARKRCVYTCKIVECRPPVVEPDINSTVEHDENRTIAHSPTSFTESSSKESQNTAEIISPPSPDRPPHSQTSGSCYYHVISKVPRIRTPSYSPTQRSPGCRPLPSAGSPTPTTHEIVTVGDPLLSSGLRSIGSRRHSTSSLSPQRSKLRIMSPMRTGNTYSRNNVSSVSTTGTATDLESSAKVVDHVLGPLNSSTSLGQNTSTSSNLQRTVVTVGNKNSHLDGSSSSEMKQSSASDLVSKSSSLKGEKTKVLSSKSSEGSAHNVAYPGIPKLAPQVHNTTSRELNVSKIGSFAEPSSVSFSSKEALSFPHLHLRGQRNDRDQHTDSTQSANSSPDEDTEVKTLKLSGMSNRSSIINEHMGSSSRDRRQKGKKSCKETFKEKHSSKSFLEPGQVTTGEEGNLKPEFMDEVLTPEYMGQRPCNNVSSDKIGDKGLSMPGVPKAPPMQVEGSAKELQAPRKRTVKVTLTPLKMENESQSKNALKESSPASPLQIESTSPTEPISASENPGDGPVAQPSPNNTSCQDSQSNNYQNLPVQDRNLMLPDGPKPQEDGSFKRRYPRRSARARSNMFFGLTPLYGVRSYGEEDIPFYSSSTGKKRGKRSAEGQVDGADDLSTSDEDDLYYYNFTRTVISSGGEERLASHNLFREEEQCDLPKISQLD
T1 sequence (Q03164 2719-3969 partner limits assumed): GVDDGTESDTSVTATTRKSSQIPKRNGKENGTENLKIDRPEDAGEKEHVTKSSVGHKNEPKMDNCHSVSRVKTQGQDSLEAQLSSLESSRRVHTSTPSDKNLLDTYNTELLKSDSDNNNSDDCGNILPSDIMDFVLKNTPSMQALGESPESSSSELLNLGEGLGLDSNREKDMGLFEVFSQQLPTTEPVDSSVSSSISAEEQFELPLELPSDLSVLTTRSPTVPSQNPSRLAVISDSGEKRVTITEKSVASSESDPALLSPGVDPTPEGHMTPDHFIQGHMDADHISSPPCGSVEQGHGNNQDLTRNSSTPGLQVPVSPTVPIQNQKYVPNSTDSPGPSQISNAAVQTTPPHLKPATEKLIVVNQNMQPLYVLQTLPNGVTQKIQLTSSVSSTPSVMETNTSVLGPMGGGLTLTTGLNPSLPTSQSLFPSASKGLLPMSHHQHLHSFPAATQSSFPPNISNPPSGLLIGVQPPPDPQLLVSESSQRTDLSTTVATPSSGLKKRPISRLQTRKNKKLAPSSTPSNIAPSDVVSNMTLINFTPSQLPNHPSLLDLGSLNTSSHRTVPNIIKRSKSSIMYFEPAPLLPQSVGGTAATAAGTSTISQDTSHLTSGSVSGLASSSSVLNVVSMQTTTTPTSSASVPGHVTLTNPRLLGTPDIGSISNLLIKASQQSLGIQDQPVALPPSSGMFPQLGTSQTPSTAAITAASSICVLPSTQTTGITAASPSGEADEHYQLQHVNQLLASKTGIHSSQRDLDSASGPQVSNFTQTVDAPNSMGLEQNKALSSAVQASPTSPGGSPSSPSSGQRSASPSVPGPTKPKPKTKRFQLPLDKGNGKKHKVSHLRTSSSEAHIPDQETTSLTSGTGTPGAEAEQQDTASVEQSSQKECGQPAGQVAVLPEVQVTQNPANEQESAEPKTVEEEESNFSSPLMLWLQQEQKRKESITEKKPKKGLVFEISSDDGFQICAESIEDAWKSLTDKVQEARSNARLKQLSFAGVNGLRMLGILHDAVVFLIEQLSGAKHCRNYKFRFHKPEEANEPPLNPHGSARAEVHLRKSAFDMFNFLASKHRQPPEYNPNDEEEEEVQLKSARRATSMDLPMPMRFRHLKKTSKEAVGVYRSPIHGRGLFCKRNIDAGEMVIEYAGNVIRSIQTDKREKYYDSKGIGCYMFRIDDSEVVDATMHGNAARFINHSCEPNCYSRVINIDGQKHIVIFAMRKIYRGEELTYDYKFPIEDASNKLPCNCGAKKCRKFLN

Compound	IC50 [1]	IC50 [2]
CC(=O)N[C@@H](C)C(=O)N[C@@H](CCCNC(=N)N)C(=O)N[C@@H](Cc1c[nH]c2ccccc12)C(=O)N[C@H]1CCCC[C@@H](C(=O)N2CCC[C@H]2C(=O)N[C@@H](CCCN)C(=O)N[C@@H](CCCNC(=N)N)C(=O)N[C@@H](CCCNC(=N)N)C(=O)N[C@@H](CCCNC(=N)N)C(N)=O)NC(=O)C2(CCC2)NC(=O)[C@@H]2CCCN2C(=O)[C@H](Cc2cccc(F)c2)NC1=O	4.6 nM	
CC(=O)N[C@@H](CO)C(=O)N[C@@H](C)C(=O)N[C@@H](CCCNC(=N)N)C(=O)N[C@@H](Cc1c[nH]c2ccccc12)C(=O)N[C@H]1CCCCCC[C@@H](C(=O)N2CCC[C@H]2C(=O)N[C@@H](CCCNC(=N)N)C(N)=O)NC(=O)[C@H](C)NC(=O)[C@@H]2CCCN2C(=O)[C@H](Cc2ccccc2)NC1=O		660 nM
CC(=O)N[C@@H](CO)C(=O)N[C@@H](C)C(=O)N[C@@H](CCCNC(=N)N)C(=O)N[C@@H](Cc1c[nH]c2ccccc12)C(=O)N[C@H]1CCCC[C@@H](C(=O)N2CCC[C@H]2C(=O)N[C@@H](CCCNC(=N)N)C(N)=O)NC(=O)[C@H](C)NC(=O)[C@@H]2CCCN2C(=O)[C@H](Cc2ccccc2)NC1=O		122 nM
CC(=O)N[C@@H](CO)C(=O)N[C@@H](C)C(=O)N[C@@H](CCCNC(=N)N)C(=O)N[C@@H](Cc1c[nH]c2ccccc12)C(=O)N[C@@H](CCCNC(=N)N)C(=O)N[C@@H](Cc1ccccc1)C(=O)N1CCC[C@H]1C(=O)N[C@@H](C)C(=O)N[C@@H](CCCNC(=N)N)C(=O)N1CCC[C@H]1C(=O)NCC(=O)N[C@H](C(N)=O)[C@@H](C)O	3590 nM	84 nM
CC(=O)N[C@@H](C)C(=O)N[C@@H](CCCNC(=N)N)C(=O)N[C@@H](Cc1c[nH]c2ccccc12)C(=O)N[C@H]1C/C=C\C[C@@H](C(=O)N2CCC[C@H]2C(=O)N[C@@H](CCCNC(=N)N)C(N)=O)NC(=O)[C@H](C)NC(=O)[C@@H]2CCCN2C(=O)[C@H](Cc2ccccc2)NC1=O (Ac-ARW[AllylGly]FPA[AllylGly]PR-NH2; staple (Z) 4-8)		151 nM
CC(=O)N[C@@H](C)C(=O)N[C@@H](CCCNC(=N)N)C(=O)N[C@@H](Cc1c[nH]c2ccccc12)C(=O)N[C@H]1C/C=C\C[C@@H](C(=O)N2CCC[C@H]2C(=O)N[C@@H](CCCN)C(N)=O)NC(=O)C2(CCC2)NC(=O)[C@@H]2CCCN2C(=O)[C@H](Cc2cccc(F)c2)NC1=O (Ac-ARW[AllylGly][Phe(3-F)]P[Ac4c][AllylGly]P[Orn]-NH2; staple (Z) 4-8)	1230 nM	
CC(=O)N[C@@H](C)C(=O)N[C@@H](CCCNC(=N)N)C(=O)N[C@@H](Cc1c[nH]c2ccccc12)C(=O)N[C@H]1C/C=C\C[C@@H](C(=O)N2CCC[C@H]2C(=O)N[C@@H](CCCN)C(=O)N[C@@H](CCCNC(=N)N)C(N)=O)NC(=O)C2(CCC2)NC(=O)[C@@H]2CCCN2C(=O)[C@H](Cc2cccc(F)c2)NC1=O (Ac-ARW[AllylGly][Phe(3-F)]P[Ac4c][AllylGly]P[Orn]R-NH2; staple (Z) 4-8)	58 nM	
CC(=O)N[C@@H](C)C(=O)N[C@@H](CCCNC(=N)N)C(=O)N[C@@H](Cc1c[nH]c2ccccc12)C(=O)N[C@H]1C/C=C\C[C@@H](C(=O)N2CCC[C@H]2C(=O)N[C@@H](CCCN)C(=O)N[C@@H](CCCNC(=N)N)C(=O)N[C@@H](CCCNC(=N)N)C(=O)N[C@@H](CCCNC(=N)N)C(N)=O)NC(=O)C2(CCC2)NC(=O)[C@@H]2CCCN2C(=O)[C@H](Cc2cccc(F)c2)NC1=O (Ac-ARW[AllylGly][Phe(3-F)]P[Ac4c][AllylGly]P[Orn]RRR-NH2; staple (Z) 4-8)	2.35 nM	
CC(=O)N[C@@H](CCCNC(=N)N)C(=O)N[C@@H](Cc1c[nH]c2ccccc12)C(=O)N[C@H]1C/C=C\C[C@@H](C(=O)N2CCC[C@H]2C(=O)N[C@@H](CCCNC(=N)N)C(N)=O)NC(=O)[C@H](C)NC(=O)[C@@H]2CCCN2C(=O)[C@H](Cc2ccccc2)NC1=O (Ac-RW[AllylGly]FPA[AllylGly]PR-NH2; staple (Z) 3-7)		372 nM
CC(=O)N[C@@H](CO)C(=O)N[C@@H](C)C(=O)N[C@@H](CCCNC(=N)N)C(=O)N[C@@H](Cc1c[nH]c2ccccc12)C(=O)N[C@H]1C/C=C\C[C@@H](C(=O)N2CCC[C@H]2C(=O)NCC(=O)N[C@H](C(N)=O)[C@@H](C)O)NC(=O)[C@H](C)NC(=O)[C@@H]2CCCN2C(=O)[C@H](Cc2ccccc2)NC1=O (Ac-SARW[AllylGly]FPA[AllylGly]PGT-NH2; staple (Z) 5-9)		41000 nM
CC(=O)N[C@@H](CO)C(=O)N[C@@H](C)C(=O)N[C@@H](CCCNC(=N)N)C(=O)N[C@@H](Cc1c[nH]c2ccccc12)C(=O)N[C@H]1C/C=C\C[C@@H](C(=O)N2CCC[C@H]2C(=O)N[C@@H](CCCCN)C(N)=O)NC(=O)[C@H](C)NC(=O)[C@@H]2CCCN2C(=O)[C@H](Cc2ccccc2)NC1=O (Ac-SARW[AllylGly]FPA[AllylGly]PK-NH2; staple (Z) 5-9)		1390 nM
CC(=O)N[C@@H](CO)C(=O)N[C@@H](C)C(=O)N[C@@H](CCCNC(=N)N)C(=O)N[C@@H](Cc1c[nH]c2ccccc12)C(=O)N[C@H]1C/C=C\C[C@@H](C(=O)N2CCC[C@H]2C(=O)N[C@@H](CCCNC(=N)N)C(=O)N[C@H](C(N)=O)[C@@H](C)O)NC(=O)[C@H](C)NC(=O)[C@@H]2CCCN2C(=O)[C@H](Cc2ccccc2)NC1=O (Ac-SARW[AllylGly]FPA[AllylGly]PRT-NH2; staple (Z) 5-9)		1800 nM
CC(=O)N[C@@H](CO)C(=O)N[C@@H](C)C(=O)N[C@@H](CCCNC(=N)N)C(=O)N[C@@H](Cc1c[nH]c2ccccc12)C(=O)N[C@H]1C/C=C\C[C@@H](C(=O)N2CCC[C@H]2C(=O)N[C@@H](CCCN)C(N)=O)NC(=O)[C@H](C)NC(=O)[C@@H]2CCCN2C(=O)[C@H](Cc2ccccc2)NC1=O (Ac-SARW[AllylGly]FPA[AllylGly]P[Orn]-NH2; staple (Z) 5-9)		142 nM
CC(=O)N[C@@H](CO)C(=O)N[C@@H](C)C(=O)N[C@@H](CCCNC(=N)N)C(=O)N[C@@H](Cc1c[nH]c2ccccc12)C(=O)N[C@H]1C/C=C\C[C@@H](C(=O)N2CCC[C@H]2C(=O)N[C@@H](CCCNC(=N)N)C(N)=O)NC(=O)[C@H](C)NC(=O)[C@@H]2CCCN2C(=O)[C@H](Cc2cccc(F)c2)NC1=O (Ac-SARW[AllylGly][Phe(3-F)]PA[AllylGly]PR-NH2; staple (Z) 5-9)		281 nM
CC(=O)N[C@@H](CO)C(=O)N[C@@H](C)C(=O)N[C@@H](CCCNC(=N)N)C(=O)N[C@@H](Cc1c[nH]c2ccccc12)C(=O)N[C@H]1C/C=C\C[C@@H](C(=O)N2CCC[C@H]2C(=O)N[C@@H](CCCN)C(N)=O)NC(=O)C2(CCC2)NC(=O)[C@@H]2CCCN2C(=O)[C@H](Cc2cccc(F)c2)NC1=O (Ac-SARW[AllylGly][Phe(3-F)]P[Ac4c][AllylGly]P[Orn]-NH2; staple (Z) 5-9)	777 nM	
CC(=O)N[C@@H](CO)C(=O)N[C@@H](C)C(=O)N[C@@H](CCCNC(=N)N)C(=O)N[C@@H](Cc1c[nH]c2ccccc12)C(=O)N[C@H]1CC/C=C\CC[C@@H](C(=O)N2CCC[C@H]2C(=O)N[C@@H](CCCNC(=N)N)C(N)=O)NC(=O)[C@H](C)NC(=O)[C@@H]2CCCN2C(=O)[C@H](Cc2ccccc2)NC1=O (Ac-SARW[Hag]FPA[Hag]PR-NH2; staple (Z) 5-9)		1100 nM
Ac-RWRFPARPGTGRR-NH2	49 nM	
Ac-SARWAFPAAPGT-NH2		61300 nM

The remaining lines, values ahead:

IC50 [1]	IC50 [2]	Compound
14 nM		CC(=O)N[C@@H](C)C(=O)N[C@@H](CCCNC(=N)N)C(=O)N[C@@H](Cc1c[nH]c2ccccc12)C(=O)N[C@H]1CCCC[C@@H](C(=O)N2CCC[C@H]2C(=O)N[C@@H](CCCN)C(=O)N[C@@H](CCCNC(=N)N)C(N)=O)NC(=O)C2(CCC2)NC(=O)[C@@H]2CCCN2C(=O)[C@H](Cc2cccc(F)c2)NC1=O
569 nM		CC(=O)N[C@@H](CO)C(=O)N[C@@H](C)C(=O)N[C@@H](CCCNC(=N)N)C(=O)N[C@@H](Cc1c[nH]c2ccccc12)C(=O)N[C@H]1CCCC[C@@H](C(=O)N2CCC[C@H]2C(=O)N[C@@H](CCCN)C(N)=O)NC(=O)C2(CCC2)NC(=O)[C@@H]2CCCN2C(=O)[C@H](Cc2cccc(F)c2)NC1=O
	6800 nM	CC(=O)N[C@@H](CO)C(=O)N[C@@H](C)C(=O)N[C@@H](CCCNC(=N)N)C(=O)N[C@@H](Cc1c[nH]c2ccccc12)C(=O)N[C@H]1C/C=C\C[C@@H](C(=O)N2CCC[C@H]2C(N)=O)NC(=O)[C@H](C)NC(=O)[C@@H]2CCCN2C(=O)[C@H](Cc2ccccc2)NC1=O (Ac-SARW[AllylGly]FPA[AllylGly]P-NH2; staple (Z) 5-9)
	770 nM	CC(=O)N[C@@H](CO)C(=O)N[C@@H](C)C(=O)N[C@@H](CCCNC(=N)N)C(=O)N[C@@H](Cc1c[nH]c2ccccc12)C(=O)N[C@H]1C/C=C\C[C@@H](C(=O)N2CCC[C@H]2C(=O)N[C@@H](CCCNC(=N)N)C(N)=O)NC(=O)[C@H](C)NC(=O)[C@@H]2CCCN2C(=O)[C@H](Cc2ccccc2)NC1=O (Ac-SARW[AllylGly]FPA[AllylGly]PR-NH2; staple (Z) 5-9)
	3000 nM	CC(=O)N[C@@H](CO)C(=O)N[C@@H](C)C(=O)N[C@@H](CCCNC(=N)N)C(=O)N[C@@H](Cc1c[nH]c2ccccc12)C(=O)N[C@H]1C/C=C\CC[C@@H](C(=O)N2CCC[C@H]2C(=O)N[C@@H](CCCNC(=N)N)C(N)=O)NC(=O)[C@H](C)NC(=O)[C@@H]2CCCN2C(=O)[C@H](Cc2ccccc2)NC1=O (Ac-SARW[AllylGly]FPA[Hag]PR-NH2; staple (Z) 5-9)
	83 nM	CC(=O)N[C@@H](CO)C(=O)N[C@@H](C)C(=O)N[C@@H](CCCNC(=N)N)C(=O)N[C@@H](Cc1c[nH]c2ccccc12)C(=O)N[C@H]1C/C=C\C[C@@H](C(=O)N2CCC[C@H]2C(=O)N[C@@H](CCCNC(=N)N)C(N)=O)NC(=O)C2(CCC2)NC(=O)[C@@H]2CCCN2C(=O)[C@H](Cc2ccccc2)NC1=O (Ac-SARW[AllylGly]FP[Ac4c][AllylGly]PR-NH2; staple (Z) 5-9)
	77700 nM	CC(=O)N[C@@H](Cc1c[nH]c2ccccc12)C(=O)N[C@H]1C/C=C\C[C@@H](C(=O)N2CCC[C@H]2C(=O)N[C@@H](CCCNC(=N)N)C(N)=O)NC(=O)[C@H](C)NC(=O)[C@@H]2CCCN2C(=O)[C@H](Cc2ccccc2)NC1=O (Ac-W[AllylGly]FPA[AllylGly]PR-NH2; staple (Z) 2-6)
	19000 nM	Ac-SARWAFPAAP-NH2
	1700 nM	Ac-SARWAFPAAPRT-NH2
	1300 nM	Ac-SARWAFPAGPR-NH2
